Assays:
[1] = test system: melon powdery mildew; experiment: Control effect against melon powdery mildew; conditions: 4000-fold-diluted concentration (control chemicals)
From the text: The bacteria culture was spread to melons with a powdery mildew incidence of about 10% under greenhouse conditions three times at one-week intervals, and after 7 days, the results were examined.
Trifumin® and Fenari® (Fenarimol) were used at a 4000-fold-diluted concentration, a recommended concentration for farmhouses.
The number of leaves with melon powdery mildew was counted before and after treatment so as to yield therapeutic effects.

[2] = test system: cucumber powdery mildew; experiment: Control effect against cucumber powdery mildew; conditions: 4000-fold-diluted concentration (control chemical)
From the text: Also, Trifumin® (Triflumizole) was used at a 4000-fold-diluted concentration, a recommended concentration for farmhouses.

Question: With `CCCOC/C(=N\c1ccc(Cl)cc1C(F)(F)F)n1ccnc1` [Trifumin ® (Triflumizole), Triflumizole] as the compound, how does the “Number of infected leaves before treatment/number of infected leaves after treatment” value [1] read?
Answer: 10/0

Question: And the Therapeutic effect [1]?
Answer: 100

Question: And the “Control effect (%)” value [2]?
Answer: 96.59%

Question: What about the “Incidence (%)” value [2] of the same compound?
Answer: 3.41%

Question: What does the source list for `OC(c1ccc(Cl)cc1)(c1cncnc1)c1ccccc1Cl` (stereo not drawn) [Fenari ® (Fenarimol), Fenarimol]?
Answer: Number of infected leaves before treatment/number of infected leaves after treatment [1]: 9/6; Therapeutic effect [1]: 33.4
